Data as given in the supplement of paper PMC11208160.

Test: recombinant UMI read abundance after kanamycin selection (control-corrected) (log10(CPM+1)); higher = more efficient recombination; extreme values may be limits of the assay; sequences stand for … in AGTGCAGAGAAAATCGGCCAGTTTTCTCTGCCTGCAGTCCGCATGCCGTGGGACCCCTTGGGTTCTAACCTGTTGCCTAGATTTATGCAGCGGACTGCCTTTCTCCCAAAGTGATAAACCGG…AGGTTGGTTTCACT; site = the 11-nt donor
In short: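 Sequenced counts of recombinant UMIs were turned into CPM, averaged across replicates and scaled with control-derived factors. The reported figure is log10(CPM+1). Those UMIs, each 12 nt long, tagged donor and donor-binding-loop pairs on a plasmid with a promoterless kanamycin gene, screened as a pool in Escherichia coli with IPTG (0.07 mM) plus kanamycin or without selection.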
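Further: IS621 bridge recombinase in Escherichia coli cells against a fixed T5 target plasmid.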

Sequence	recombinant UMI read abundance (log10)
CTCCCTACATGGACCGGTTTTCCCGGTAATCCGTATTTGAG (site CTCCCAACTCT)	0.00701
CTCCCTACATGGACCGGTTTTCCCGGTAATCCGTATTTGAG (site CTCCCCACTCT)	0.0165
CTCCCTACATGGACCGGTTTTCCCGGTAATCCGTATTTGAG (site CTCCCGACTCT)	0.0234
CTCCCTACATGGACCGGTTTTCCCGGTAATCCGTATTTGAG (site CTCCCTACTAT)	0.455
CTCCCTACATGGACCGGTTTTCCCGGTAATCCGTATTTGAG (site CTCCCTACTCA)	0.0198
CTCCCTACATGGACCGGTTTTCCCGGTAATCCGTATTTGAG (site CTCCCTACTCC)	0.0101
CTCCCTACATGGACCGGTTTTCCCGGTAATCCGTATTTGAG (site CTCCCTACTCG)	0.00797
CTCCCTACATGGACCGGTTTTCCCGGTAATCCGTATTTGAG (site CTCCCTACTCT)	0.248
CTCCCTACATGGACCGGTTTTCCCGGTAATCCGTATTTGAG (site CTCCCTACTGT)	0
CTCCCTACATGGACCGGTTTTCCCGGTAATCCGTATTTGAG (site CTCCCTACTTT)	0.0136
CTCCCTACATGGACCGGTTTTCCCGGTAATCCGTATTTGAG (site CTCCCTCCTCT)	0.00493
CTCCCTACATGGACCGGTTTTCCCGGTAATCCGTATTTGAG (site CTCCCTGCTCT)	0.0117
CTCCCTACATGGACCGGTTTTCCCGGTAATCCGTATTTGAG (site CTCCCTTCTCT)	0.0166
CTCCCTACATGGACCGGTTTTCCCGGTAATCCGTATTTGAG (site CTCCGTACTCT)	0.0179
CTCCCTACATGGACCGGTTTTCCCGGTAATCCGTATTTGAG (site CTCCTTACTCT)	0.00587
CTCCCTACATGGACCGGTTTTCCCGGTAATCCGTATTTGAG (site CTCGCTACTCT)	0.0283
CTCCCTACATGGACCGGTTTTCCCGGTAATCCGTATTTGAG (site CTCTCTACTCT)	0.00795
CTCCCTACATGGACCGGTTTTCCCGGTAATCCGTATTTGAG (site CTGCCTACTCT)	0.0259
CTCCCTACATGGACCGGTTTTCCCGGTAATCCGTATTTGAG (site CTTCCTACTCT)	0.0102

Sequence	recombinant UMI read abundance (log10)
CTCCCTACATGGACCGGTTTTCCCGGTAATCCGTATTTGAG (site GTCCCTACTCT)	0.0115
CTCCCTACATGGACCGGTTTTCCCGGTAATCCGTATTTGAG (site TTCCCTACTCT)	0.00609
CTCCCTGCATGGACCGGTTTTCCCGGTAATCCGTATTTGAG (site CTCCCTACTCT)	0.664
CTCCCTGCATGGACCGGTTTTCCCGGTAATCCGTATTTGAG (site CTCCCTCCTCT)	0.00848
CTCCCTGCATGGACCGGTTTTCCCGGTAATCCGTATTTGAG (site CTCCCTGCTCT)	1.16
CTCCCTGCATGGACCGGTTTTCCCGGTAATCCGTATTTGAG (site CTCCCTTCTCT)	0.325
CTCCCTTCATGGACCGGTTTTCCCGGTAATCCGTATTTGAG (site CTCCCTACTCT)	0.0118
CTCCCTTCATGGACCGGTTTTCCCGGTAATCCGTATTTGAG (site CTCCCTCCTCT)	0.0285
CTCCCTTCATGGACCGGTTTTCCCGGTAATCCGTATTTGAG (site CTCCCTGCTCT)	0.00848
CTCCCTTCATGGACCGGTTTTCCCGGTAATCCGTATTTGAG (site CTCCCTTCTCT)	0.898
CTCCGAACATGGACCGGTTTTCCCGGTAATCCGTATTTGCG (site CTCCGAACTCG)	0.829
CTCCGTGCATGGACCGGTTTTCCCGGTAATCCGTATTTGGC (site CTCCGTGCTGC)	1.87
CTCGAAACATGGACCGGTTTTCCCGGTAATCCGTATTTGCA (site CTAGAAACTTG)	0
CTCGAAACATGGACCGGTTTTCCCGGTAATCCGTATTTGCA (site CTCGAAACTTG)	2.34
CTCGAAACATGGACCGGTTTTCCCGGTAATCCGTATTTGCA (site CTGGAAACTTG)	0
CTCGAAACATGGACCGGTTTTCCCGGTAATCCGTATTTGCA (site CTTGAAACTTG)	0
CTCGAACCATGGACCGGTTTTCCCGGTAATCCGTATTTGAC (site CTCGAACCTGT)	0
CTCGAATCATGGACCGGTTTTCCCGGTAATCCGTATTTGAA (site CTCGAATCTTT)	1.86
CTCGAGTCATGGACCGGTTTTCCCGGTAATCCGTATTTGTG (site CTCGAGTCTCA)	1.87

Sequence	recombinant UMI read abundance (log10)
CTCGATACATGGACCGGTTTTCCCGGTAATCCGTATTTGCT (site CTCGATACTAG)	2.37
CTCGCTACATGGACCGGTTTTCCCGGTAATCCGTATTTGAT (site CTCGCTACTAT)	1.7
CTCGGATCATGGACCGGTTTTCCCGGTAATCCGTATTTGGA (site CTCGGATCTTC)	1.56
CTCGGGCCATGGACCGGTTTTCCCGGTAATCCGTATTTGAG (site CTCGGGCCTCT)	0
CTCGGTCCATGGACCGGTTTTCCCGGTAATCCGTATTTGCA (site CACGGTCCTTG)	0.779
CTCGGTCCATGGACCGGTTTTCCCGGTAATCCGTATTTGCA (site CCCGGTCCTTG)	1.6
CTCGGTCCATGGACCGGTTTTCCCGGTAATCCGTATTTGCA (site CGCGGTCCTTG)	0.00731
CTCGGTCCATGGACCGGTTTTCCCGGTAATCCGTATTTGCA (site CTCGGTCCTTG)	0.517
CTCGTCGCATGGACCGGTTTTCCCGGTAATCCGTATTTGGG (site CTCGTCGCTCC)	0.0128
CTCTACACATGGACCGGTTTTCCCGGTAATCCGTATTTGCT (site ATCTACACTAG)	0.294
CTCTACACATGGACCGGTTTTCCCGGTAATCCGTATTTGCT (site CACTACACTAG)	1.63
CTCTACACATGGACCGGTTTTCCCGGTAATCCGTATTTGCT (site CCCTACACTAG)	2.09
CTCTACACATGGACCGGTTTTCCCGGTAATCCGTATTTGCT (site CGCTACACTAG)	0.891
CTCTACACATGGACCGGTTTTCCCGGTAATCCGTATTTGCT (site CTATACACTAG)	0.775
CTCTACACATGGACCGGTTTTCCCGGTAATCCGTATTTGCT (site CTCAACACTAG)	0
CTCTACACATGGACCGGTTTTCCCGGTAATCCGTATTTGCT (site CTCCACACTAG)	2.02
CTCTACACATGGACCGGTTTTCCCGGTAATCCGTATTTGCT (site CTCGACACTAG)	0.288
CTCTACACATGGACCGGTTTTCCCGGTAATCCGTATTTGCT (site CTCTAAACTAG)	0
CTCTACACATGGACCGGTTTTCCCGGTAATCCGTATTTGCT (site CTCTACACTAA)	0.362
